According to ChEMBL document CHEMBL3045592, “Studies of O,O-dimethyl α-(2,4-dichlorophenoxyacetoxy)ethylphosphonate (HW02) as a new herbicide. 1. Synthesis and herbicidal activity of HW02 and analogues as novel inhibitors of pyruvate dehydrogenase complex” (J Agric Food Chem, 2011):

Tests used:
Portulaca oleracea [1] = test: Post-emergence herbicidal activity against Portulaca oleracea assessed as growth inhibition at 150 ai g/ha after 20 days by green house test; assay type: functional
Portulaca oleracea [2] = test: Post-emergence herbicidal activity against Portulaca oleracea assessed as growth inhibition at 225 ai g/ha after 20 days by green house test; assay type: functional
[3] = Toxicity against Zea mays Gao you 1 (maize) assessed as growth inhibition at 450 ai g/ha post-emergent application measured after 20 days by green house crop selectivity test; assay type: organism-based; details: Gao you 1, zea mays, in vivo, read-out: GI
Daucus carota = test: Post-emergence herbicidal activity against Daucus carota (carrot) assessed as growth inhibition at 150 ai g/ha after 20 days by green house test; assay type: functional
Xanthium strumarium [4] = test: Post-emergence herbicidal activity against Xanthium strumarium (cocklebur) assessed as growth inhibition at 75 ai g/ha after 20 days by green house test; assay type: functional
Eclipta prostrata [5] = test: Post-emergence herbicidal activity against Eclipta prostrata assessed as growth inhibition at 18.75 ai g/ha after 20 days by green house test; assay type: functional
[6] = Toxicity against Triticum aestivum Yang Mai 1 (wheat) assessed as growth inhibition at 300 ai g/ha post-emergent application measured after 20 days by green house crop selectivity test; assay type: organism-based; details: Yang Mai 1, triticum aestivum, in vivo, read-out: GI
Oryza sativa [7] = test: Inhibition of PDHc in Oryza sativa (rice) shoot mitochondria assessed as decrease in rate of NADH formation using sodium pyruvate as substrate at 10 microg/g preincubated for 25 min before substrate addition measured after 1 min by spectrophotometric assay
Medicago sativa [8] = test: Post-emergence herbicidal activity against Medicago sativa (alfalfa) assessed as growth inhibition at 450 ai g/ha after 20 days by green house test; assay type: functional
[9] = Toxicity against Oryza sativa (rice) assessed as growth inhibition at 600 ai g/ha post-emergent application measured after 20 days by green house crop selectivity test; assay type: organism-based; details: in vivo, read-out: GI
Amaranthus retroflexus [10] = test: Post-emergence herbicidal activity against Amaranthus retroflexus assessed as growth inhibition at 225 ai g/ha after 20 days by green house test; assay type: functional
Amaranthus retroflexus [11] = test: Post-emergence herbicidal activity against Amaranthus retroflexus assessed as growth inhibition at 37.5 ai g/ha after 20 days by green house test; assay type: functional
Oryza sativa [12] = test: Inhibition of PDHc in Oryza sativa (rice) shoot mitochondria assessed as decrease in rate of NADH formation using sodium pyruvate as substrate at 0.1 microg/g preincubated for 25 min before substrate addition measured after 1 min by spectrophotometric assay
Xanthium strumarium [13] = test: Post-emergence herbicidal activity against Xanthium strumarium (cocklebur) assessed as growth inhibition at 150 ai g/ha after 20 days by green house test; assay type: functional
Oryza sativa [14] = test: Inhibition of PDHc in Oryza sativa (rice) shoot mitochondria assessed as decrease in rate of NADH formation using sodium pyruvate as substrate at 100 microg/g preincubated for 25 min before substrate addition measured after 1 min by spectrophotometric assay
Digitaria sanguinalis [15] = test: Post-emergence herbicidal activity against Digitaria sanguinalis (hairy crabgrass) assessed as growth inhibition at 37.5 ai g/ha after 20 days by green house test; assay type: functional
[16] = Toxicity against Oryza sativa (rice) assessed as growth inhibition at 300 ai g/ha post-emergent application measured after 20 days by green house crop selectivity test; assay type: organism-based; details: in vivo, read-out: GI
[17] = Toxicity against Zea mays Gao you 1 (maize) assessed as growth inhibition at 150 ai g/ha post-emergent application measured after 20 days by green house crop selectivity test; assay type: organism-based; details: Gao you 1, zea mays, in vivo, read-out: GI
[18] = test system: Brassica rapa subsp. oleifera; test: Post-emergence herbicidal activity against Brassica rapa subsp. oleifera Si Yue Man assessed as growth inhibition at 150 ai g/ha after 20 days by green house test; assay type: functional
Medicago sativa [19] = test: Post-emergence herbicidal activity against Medicago sativa (alfalfa) assessed as growth inhibition at 37.5 ai g/ha after 20 days by green house test; assay type: functional
Echinochloa crus-galli [20] = test: Post-emergence herbicidal activity against Echinochloa crus-galli (barnyard grass) assessed as growth inhibition at 150 ai g/ha after 20 days by green house test; assay type: functional
Digitaria sanguinalis [21] = test: Post-emergence herbicidal activity against Digitaria sanguinalis (hairy crabgrass) assessed as growth inhibition at 225 ai g/ha after 20 days by green house test; assay type: functional
[22] = Inhibition of PDHc in Oryza sativa (rice) shoot mitochondria assessed as decrease in rate of NADH formation using sodium pyruvate as substrate preincubated for 25 min before substrate addition measured after 1 min by spectrophotometric assay
Xanthium strumarium [23] = test: Post-emergence herbicidal activity against Xanthium strumarium (cocklebur) assessed as growth inhibition at 300 ai g/ha after 20 days by green house test; assay type: functional
Cardamine hirsuta [24] = test: Post-emergence herbicidal activity against Cardamine hirsuta assessed as growth inhibition at 75 ai g/ha after 20 days by green house test; assay type: functional
Cardamine hirsuta [25] = test: Post-emergence herbicidal activity against Cardamine hirsuta assessed as growth inhibition at 450 ai g/ha after 20 days by green house test; assay type: functional
[26] = test system: Brassica rapa subsp. oleifera; test: Post-emergence herbicidal activity against Brassica rapa subsp. oleifera Si Yue Man assessed as growth inhibition at 225 ai g/ha after 20 days by green house test; assay type: functional
Digitaria sanguinalis [27] = test: Post-emergence herbicidal activity against Digitaria sanguinalis (hairy crabgrass) assessed as growth inhibition at 18.75 ai g/ha after 20 days by green house test; assay type: functional
Echinochloa crus-galli [28] = test: Post-emergence herbicidal activity against Echinochloa crus-galli (barnyard grass) assessed as growth inhibition at 225 ai g/ha after 20 days by green house test; assay type: functional
[29] = test system: Brassica rapa subsp. oleifera; test: Post-emergence herbicidal activity against Brassica rapa subsp. oleifera Si Yue Man assessed as growth inhibition at 300 ai g/ha after 20 days by green house test; assay type: functional
[30] = test system: Brassica rapa subsp. oleifera; test: Post-emergence herbicidal activity against Brassica rapa subsp. oleifera Si Yue Man assessed as growth inhibition at 450 ai g/ha after 20 days by green house test; assay type: functional
Eclipta prostrata [31] = test: Post-emergence herbicidal activity against Eclipta prostrata assessed as growth inhibition at 150 ai g/ha after 20 days by green house test; assay type: functional
Amaranthus retroflexus [32] = test: Post-emergence herbicidal activity against Amaranthus retroflexus assessed as growth inhibition at 300 ai g/ha after 20 days by green house test; assay type: functional
Xanthium strumarium [33] = test: Post-emergence herbicidal activity against Xanthium strumarium (cocklebur) assessed as growth inhibition at 18.75 ai g/ha after 20 days by green house test; assay type: functional
Xanthium strumarium [34] = test: Post-emergence herbicidal activity against Xanthium strumarium (cocklebur) assessed as growth inhibition at 225 ai g/ha after 20 days by green house test; assay type: functional
[35] = Toxicity against Triticum aestivum Yang Mai 1 (wheat) assessed as growth inhibition at 600 ai g/ha post-emergent application measured after 20 days by green house crop selectivity test; assay type: organism-based; details: Yang Mai 1, triticum aestivum, in vivo, read-out: GI
[36] = Toxicity against Triticum aestivum Yang Mai 1 (wheat) assessed as growth inhibition at 225 ai g/ha post-emergent application measured after 20 days by green house crop selectivity test; assay type: organism-based; details: Yang Mai 1, triticum aestivum, in vivo, read-out: GI
[37] = Toxicity against Zea mays Gao you 1 (maize) assessed as growth inhibition at 225 ai g/ha post-emergent application measured after 20 days by green house crop selectivity test; assay type: organism-based; details: Gao you 1, zea mays, in vivo, read-out: GI
[38] = Toxicity against Triticum aestivum Yang Mai 1 (wheat) assessed as growth inhibition at 450 ai g/ha post-emergent application measured after 20 days by green house crop selectivity test; assay type: organism-based; details: Yang Mai 1, triticum aestivum, in vivo, read-out: GI

COP(=O)(OC)C(C)OC(=O)COc1ccc(Cl)cc1Cl (centres undefined) [CLACYFOS]
growth inhibition (GI) (Portulaca oleracea [1]): 85%
growth inhibition (GI) (Portulaca oleracea [2]): 90%
inhibition at 480 h [3]: 0%
growth inhibition (GI) (Daucus carota): 95%
growth inhibition (GI) (Xanthium strumarium [4]): 72%
growth inhibition (GI) (Eclipta prostrata [5]): 56%
inhibition at 480 h [6]: 0%
inhibition (Oryza sativa [7]): 16.9%
growth inhibition (GI) (Medicago sativa [8]): 100%
inhibition at 480 h [9]: 0%
growth inhibition (GI) (Amaranthus retroflexus [10]): 100%
growth inhibition (GI) (Amaranthus retroflexus [11]): 82.5%
inhibition (Oryza sativa [12]): 3.4%
growth inhibition (GI) (Xanthium strumarium [13]): 90%
inhibition (Oryza sativa [14]): 21.3%
growth inhibition (GI) (Digitaria sanguinalis [15]): 0%
inhibition at 480 h [16]: 0%
inhibition at 480 h [17]: 0%
growth inhibition (GI) [18]: 97%
growth inhibition (GI) (Medicago sativa [19]): 72%
growth inhibition (GI) (Echinochloa crus-galli [20]): 0%
growth inhibition (GI) (Digitaria sanguinalis [21]): 22.5%
IC50 [22]: 867 µM
growth inhibition (GI) (Xanthium strumarium [23]): 100%
growth inhibition (GI) (Cardamine hirsuta [24]): 88%
growth inhibition (GI) (Cardamine hirsuta [25]): 100%
growth inhibition (GI) [26]: 100%
growth inhibition (GI) (Digitaria sanguinalis [27]): 0%
growth inhibition (GI) (Echinochloa crus-galli [28]): 10%
growth inhibition (GI) [29]: 100%
growth inhibition (GI) [30]: 100%
growth inhibition (GI) (Eclipta prostrata [31]): 90%
growth inhibition (GI) (Amaranthus retroflexus [32]): 100%
growth inhibition (GI) (Xanthium strumarium [33]): 50%
growth inhibition (GI) (Xanthium strumarium [34]): 95%
inhibition at 480 h [35]: 0%
inhibition at 480 h [36]: 0%
inhibition at 480 h [37]: 0%
inhibition at 480 h [38]: 0%
